Assay results taken from patent US11208412B2 (DAEGU-GYEONGBUK MEDICAL INNOVATION FOUNDATION, priority 2017, dated 2021).

Experiments:
Assay in all cases: Kinase selectivity, DiscoverX scanMAX Kinase assay panel (% control)
Assay type in all cases: binding
[1] = target: T1, kinases of the scanMAX Kinase assay panel (Homo sapiens, UniProt P43403); conditions: kinase ZAP70; 1 uM in DMSO
T1 construct: purchased DiscoverX Co. (contract measurement) scanMAX Kinase assay panel
T1 sequence (P43403 1-619): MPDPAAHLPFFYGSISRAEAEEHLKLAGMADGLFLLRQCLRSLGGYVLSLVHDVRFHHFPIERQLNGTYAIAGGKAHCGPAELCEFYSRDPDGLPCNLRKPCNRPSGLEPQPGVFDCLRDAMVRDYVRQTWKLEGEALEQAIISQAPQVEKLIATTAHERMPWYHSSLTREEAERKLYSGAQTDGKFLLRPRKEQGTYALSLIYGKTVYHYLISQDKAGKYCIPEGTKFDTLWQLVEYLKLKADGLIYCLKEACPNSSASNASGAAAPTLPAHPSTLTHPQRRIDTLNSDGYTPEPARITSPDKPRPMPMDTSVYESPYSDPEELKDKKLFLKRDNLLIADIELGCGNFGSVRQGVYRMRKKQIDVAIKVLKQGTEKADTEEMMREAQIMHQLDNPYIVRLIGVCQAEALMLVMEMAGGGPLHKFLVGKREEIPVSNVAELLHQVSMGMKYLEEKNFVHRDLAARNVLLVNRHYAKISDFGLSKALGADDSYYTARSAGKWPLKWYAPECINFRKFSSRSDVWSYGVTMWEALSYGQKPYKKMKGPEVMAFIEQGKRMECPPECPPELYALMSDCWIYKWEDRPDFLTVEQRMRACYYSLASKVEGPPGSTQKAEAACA
In short: (§1)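 Binding-panel profiling at one concentration, 1 uM in DMSO; values are % of DMSO control after subtracting the positive-control floor. Less than 35% means activity on that kinase.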

[2] = target: T2, kinases of the scanMAX Kinase assay panel (Homo sapiens, UniProt Q99558); conditions: NIK; 1 uM
T2 construct: purchased DiscoverX Co. (contract measurement) scanMAX Kinase assay panel
In short: as §1

[3] = target: T3, kinases of the scanMAX Kinase assay panel (Homo sapiens, UniProt P11802); conditions: 1 uM
T3 construct: purchased DiscoverX Co. (contract measurement) scanMAX Kinase assay panel
In short: as §1

[4] = target: T4, kinases of the scanMAX Kinase assay panel (Homo sapiens, UniProt Q8TD19); conditions: NEK9; 1 uM
T4 construct: purchased DiscoverX Co. (contract measurement) scanMAX Kinase assay panel
T4 sequence (Q8TD19 1-979): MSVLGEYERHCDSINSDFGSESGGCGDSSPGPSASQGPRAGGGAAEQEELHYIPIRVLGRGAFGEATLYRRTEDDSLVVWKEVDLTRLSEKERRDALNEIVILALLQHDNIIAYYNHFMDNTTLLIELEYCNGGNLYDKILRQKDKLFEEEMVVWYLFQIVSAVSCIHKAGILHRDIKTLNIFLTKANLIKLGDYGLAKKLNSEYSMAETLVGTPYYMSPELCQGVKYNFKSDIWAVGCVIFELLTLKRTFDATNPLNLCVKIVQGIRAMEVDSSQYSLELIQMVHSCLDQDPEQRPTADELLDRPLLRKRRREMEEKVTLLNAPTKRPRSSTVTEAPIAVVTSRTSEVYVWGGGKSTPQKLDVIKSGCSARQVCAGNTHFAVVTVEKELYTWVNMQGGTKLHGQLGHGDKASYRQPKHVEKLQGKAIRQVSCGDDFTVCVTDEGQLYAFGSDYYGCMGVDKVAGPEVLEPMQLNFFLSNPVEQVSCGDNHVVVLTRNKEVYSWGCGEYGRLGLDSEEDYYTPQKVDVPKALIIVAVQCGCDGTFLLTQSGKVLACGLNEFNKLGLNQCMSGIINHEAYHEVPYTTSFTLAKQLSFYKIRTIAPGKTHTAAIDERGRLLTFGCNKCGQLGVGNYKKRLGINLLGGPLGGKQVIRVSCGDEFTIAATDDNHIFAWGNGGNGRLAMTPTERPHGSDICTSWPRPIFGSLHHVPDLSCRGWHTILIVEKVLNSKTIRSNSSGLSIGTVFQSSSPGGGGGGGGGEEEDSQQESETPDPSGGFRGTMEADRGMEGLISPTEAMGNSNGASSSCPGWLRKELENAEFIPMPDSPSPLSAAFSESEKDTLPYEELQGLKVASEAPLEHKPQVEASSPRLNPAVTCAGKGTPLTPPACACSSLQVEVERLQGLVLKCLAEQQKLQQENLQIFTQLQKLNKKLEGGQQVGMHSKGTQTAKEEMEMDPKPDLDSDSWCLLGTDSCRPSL
In short: as §1

[5] = target: T5, kinases of the scanMAX Kinase assay panel (Homo sapiens, UniProt Q9H2X6); conditions: HIPK2; 1 uM
T5 construct: purchased DiscoverX Co. (contract measurement) scanMAX Kinase assay panel
In short: as §1

[6] = target: T6, kinases of the scanMAX Kinase assay panel (Homo sapiens, UniProt O43318); conditions: kinase TAK1; 1 uM in DMSO
T6 construct: purchased DiscoverX Co. (contract measurement) scanMAX Kinase assay panel
T6 sequence (O43318 1-606): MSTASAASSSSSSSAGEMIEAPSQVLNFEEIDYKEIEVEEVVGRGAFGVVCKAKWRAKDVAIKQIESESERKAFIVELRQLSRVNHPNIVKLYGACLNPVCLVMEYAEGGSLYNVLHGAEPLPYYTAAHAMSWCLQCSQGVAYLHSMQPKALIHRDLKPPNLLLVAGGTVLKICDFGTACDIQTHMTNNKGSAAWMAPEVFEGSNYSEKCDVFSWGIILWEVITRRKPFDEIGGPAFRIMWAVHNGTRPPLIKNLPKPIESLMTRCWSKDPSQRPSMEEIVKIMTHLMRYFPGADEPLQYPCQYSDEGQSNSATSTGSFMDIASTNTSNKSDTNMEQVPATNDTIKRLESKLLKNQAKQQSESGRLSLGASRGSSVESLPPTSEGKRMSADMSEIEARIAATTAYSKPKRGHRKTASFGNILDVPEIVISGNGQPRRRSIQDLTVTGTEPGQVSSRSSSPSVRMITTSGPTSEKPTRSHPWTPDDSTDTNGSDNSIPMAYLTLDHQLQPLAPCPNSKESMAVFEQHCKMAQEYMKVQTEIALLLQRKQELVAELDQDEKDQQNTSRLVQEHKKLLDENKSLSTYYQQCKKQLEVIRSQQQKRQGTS
In short: as §1

T5 sequence (Q9H2X6 whole entry): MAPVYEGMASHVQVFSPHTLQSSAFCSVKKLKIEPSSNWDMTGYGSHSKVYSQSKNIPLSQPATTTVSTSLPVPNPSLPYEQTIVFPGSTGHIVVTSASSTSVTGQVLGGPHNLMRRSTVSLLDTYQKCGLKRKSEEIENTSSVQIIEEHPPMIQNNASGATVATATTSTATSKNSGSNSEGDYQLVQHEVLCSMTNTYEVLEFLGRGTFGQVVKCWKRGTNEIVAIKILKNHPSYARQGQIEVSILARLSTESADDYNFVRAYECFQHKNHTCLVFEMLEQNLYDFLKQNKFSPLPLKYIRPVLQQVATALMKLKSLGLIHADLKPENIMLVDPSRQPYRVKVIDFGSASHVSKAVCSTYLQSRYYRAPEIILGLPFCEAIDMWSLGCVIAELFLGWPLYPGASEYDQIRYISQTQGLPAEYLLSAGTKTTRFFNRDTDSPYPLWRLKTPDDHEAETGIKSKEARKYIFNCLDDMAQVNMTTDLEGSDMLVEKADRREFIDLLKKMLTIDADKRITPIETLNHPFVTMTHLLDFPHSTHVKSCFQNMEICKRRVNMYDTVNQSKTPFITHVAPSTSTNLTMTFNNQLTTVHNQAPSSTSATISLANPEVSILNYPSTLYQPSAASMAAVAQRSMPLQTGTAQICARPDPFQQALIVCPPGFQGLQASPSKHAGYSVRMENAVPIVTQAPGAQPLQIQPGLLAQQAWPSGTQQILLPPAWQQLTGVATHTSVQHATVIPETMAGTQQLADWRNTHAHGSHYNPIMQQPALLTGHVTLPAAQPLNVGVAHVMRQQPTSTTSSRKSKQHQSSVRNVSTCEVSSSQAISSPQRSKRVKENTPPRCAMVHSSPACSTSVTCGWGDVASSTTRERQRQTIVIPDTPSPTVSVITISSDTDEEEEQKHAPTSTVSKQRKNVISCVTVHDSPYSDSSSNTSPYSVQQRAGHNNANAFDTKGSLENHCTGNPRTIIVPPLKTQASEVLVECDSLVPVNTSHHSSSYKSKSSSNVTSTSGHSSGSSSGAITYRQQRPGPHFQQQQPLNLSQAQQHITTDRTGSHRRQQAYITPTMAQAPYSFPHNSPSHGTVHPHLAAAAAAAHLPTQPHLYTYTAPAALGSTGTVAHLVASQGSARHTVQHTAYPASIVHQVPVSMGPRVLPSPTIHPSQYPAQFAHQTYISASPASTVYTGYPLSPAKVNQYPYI
T2 sequence (Q99558 whole entry): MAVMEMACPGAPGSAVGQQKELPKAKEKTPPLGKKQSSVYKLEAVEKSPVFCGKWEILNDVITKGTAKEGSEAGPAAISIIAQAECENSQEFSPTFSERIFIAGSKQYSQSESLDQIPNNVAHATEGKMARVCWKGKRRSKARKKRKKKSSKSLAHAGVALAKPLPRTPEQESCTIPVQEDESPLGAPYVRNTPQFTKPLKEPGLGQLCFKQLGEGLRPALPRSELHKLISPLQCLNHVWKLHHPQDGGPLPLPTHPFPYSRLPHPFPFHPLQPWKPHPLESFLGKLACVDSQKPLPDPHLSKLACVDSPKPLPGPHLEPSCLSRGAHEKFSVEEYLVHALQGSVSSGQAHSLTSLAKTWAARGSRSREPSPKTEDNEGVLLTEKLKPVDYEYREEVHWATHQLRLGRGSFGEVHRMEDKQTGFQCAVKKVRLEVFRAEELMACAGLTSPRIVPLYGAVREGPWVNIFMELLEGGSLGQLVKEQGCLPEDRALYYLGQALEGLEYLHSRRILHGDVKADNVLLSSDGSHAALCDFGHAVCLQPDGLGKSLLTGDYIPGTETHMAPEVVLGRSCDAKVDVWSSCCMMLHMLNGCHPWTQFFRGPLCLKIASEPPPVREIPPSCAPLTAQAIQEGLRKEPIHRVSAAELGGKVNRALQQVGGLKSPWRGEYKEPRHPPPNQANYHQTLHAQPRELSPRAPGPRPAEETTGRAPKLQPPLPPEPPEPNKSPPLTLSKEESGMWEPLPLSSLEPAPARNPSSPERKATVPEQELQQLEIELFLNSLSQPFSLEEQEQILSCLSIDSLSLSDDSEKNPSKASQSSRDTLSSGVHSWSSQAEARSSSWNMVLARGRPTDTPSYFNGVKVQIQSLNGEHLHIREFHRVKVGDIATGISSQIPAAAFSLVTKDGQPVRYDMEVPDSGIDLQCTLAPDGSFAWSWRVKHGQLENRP
T3 sequence (P11802 whole entry): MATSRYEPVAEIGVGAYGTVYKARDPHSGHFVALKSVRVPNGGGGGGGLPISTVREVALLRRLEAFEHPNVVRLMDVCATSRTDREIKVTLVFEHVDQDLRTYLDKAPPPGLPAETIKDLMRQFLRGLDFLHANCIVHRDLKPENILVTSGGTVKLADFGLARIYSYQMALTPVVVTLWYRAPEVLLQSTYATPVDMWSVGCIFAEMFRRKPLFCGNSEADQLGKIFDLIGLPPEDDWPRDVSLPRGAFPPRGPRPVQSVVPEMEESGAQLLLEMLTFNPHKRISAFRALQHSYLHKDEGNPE

Row | SMILES | remaining binding at 1 µM [1] [%] | remaining binding at 1 µM [2] [%] | remaining binding at 1 µM ([3]; CDK4-cyclinD1) [%] | remaining binding at 1 µM ([3]; CDK4-cyclinD3) [%] | remaining binding at 1 µM ([3]; CDK4) [%] | remaining binding at 1 µM [4] [%] | remaining binding at 1 µM [5] [%] | remaining binding at 1 µM [6] [%]
1 | CCNc1nc(Nc2ccc(C(=O)N3CCC(N4CCOCC4)CC3)cc2OC)nc2[nH]cc(C(F)(F)F)c12 [Example 104, (4-((4-(ethylamino)-5-(trifluoromethyl)-7H-pyrrolo[2,3-d]pyrimidine-2-yl)amino)-3-methoxyphenyl)(4-morpholinopiperidine-1-yl)methanone] | 100 | 16 | 55 | 53 | 100 | 99 | 14 | 100
2 | CC1(Nc2nc(Nc3cnn([C@H]4CCN(C5COC5)C[C@@H]4F)c3Cl)nc3[nH]cc(C#N)c23)CC1 [Example 52, 2-((5-chloro-1-((3S,4S)-3-fluoro-1-(oxetane-3-yl)piperidine-4-yl)-1H-pyrazole-4-yl)amino)((1-methylcyclopropyl)amino)-7H-pyrrolo[2,3-d]pyrimidine-5-carbonitrile] | 2.2 | 7.4 | 59 | 100 | 100 | 73 | 13 | 0.05
3 | CNc1nc(Nc2ccc(C(=O)N3CCOCC3)cc2OC)nc2[nH]cc(C#N)c12 [Example 1, 2-((2-methoxy-4-(morpholine-4-carbonyl)phenyl)amino)-4-(methylamino)-7H-pyrrolo[2,3-d]pyrimidine-5-carbonitrile] | 35 | 3.7 | 74 | 96 | 61 | 100 | 47 | 52
